From ChEMBL document CHEMBL1201862, “PubChem BioAssay data set” (2004) come the findings set out here.

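Test compounds were applied to cells in 96-well plates for 48 hours at 5 doses. GI50 marks 50% less growth.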 The source made the active and inactive calls. Rule as the data show it: active = GI50 up to about 1.1 µM and inactive = higher. Some results are limits rather than exact numbers.

Some test systems named below: DU-145; PC-3; SNB-75; BT-549; NCI-H226; Hs-578T; U-251; SNB-19; OVCAR-3; SW-620; UACC-257; MDA-MB-435; MOLT-4; SK-MEL-2; RPMI-8226; SF-539; HOP-62; OVCAR-5; EKVX; K562.
Holding throughout (assay): NCI-60 cell line screen, 48 h

For the molecule `O=C1OC2C(O)COC2(O)C1(O)C(C[N+](=O)[O-])c1ccc(Cl)cc1` (stereo not given), the GI50 with DU-145 was 18.2 µM (inactive); in the assay with PC-3 it was 17 µM (inactive); in the assay on SNB-75, 9.35 µM (inactive); in the assay on BT-549, 6.75 µM (inactive); with NCI-H226 it was 11.6 µM (inactive); with Hs-578T, 13.4 µM (inactive). The GI50 with U-251 is 9.29 µM (inactive); in the assay with SNB-19, 15.2 µM (inactive); with OVCAR-3, 7.19 µM (inactive); in the assay on SW-620, 2.71 µM (inactive); in the assay with UACC-257, 6.68 µM (inactive); in the assay on MDA-MB-435, 1.97 µM (inactive). In addition, the GI50 is 2.6 µM (inactive) in the assay with MOLT-4; 15.7 µM (inactive) with SK-MEL-2; 0.959 µM (active) in the assay on RPMI-8226; 3.97 µM (inactive) in the assay on SF-539; 20.6 µM (inactive) in the assay on HOP-62; 16.4 µM (inactive) in the assay with OVCAR-5. Moreover, the figures for the GI50 in the assay on EKVX and in the assay with K562 were 23.6 µM (inactive) and 2.96 µM (inactive), respectively.
Take `NCCN1C(=O)CN=C(c2ccc(Cl)cc2)c2cc(Cl)ccc21`: the GI50 was 17.1 µM (inactive) in the assay on DU-145; 14.8 µM (inactive) with PC-3; 14.9 µM (inactive) in the assay on SNB-75; 16 µM (inactive) with BT-549; 14 µM (inactive) with NCI-H226; 16.1 µM (inactive) in the assay on Hs-578T. In addition, the GI50 with U-251 is 16.8 µM (inactive); in the assay with SNB-19, 20.1 µM (inactive); in the assay on OVCAR-3, 15.5 µM (inactive); with SW-620 it was 15.7 µM (inactive); in the assay on UACC-257, 19 µM (inactive); in the assay with MDA-MB-435 it was 14.9 µM (inactive). Moreover, the GI50 in the assay on MOLT-4 was 0.46 µM (active); with SK-MEL-2 it was 16.3 µM (inactive); in the assay on RPMI-8226 it was 17.6 µM (inactive); in the assay with SF-539, 17.4 µM (inactive); in the assay with HOP-62, 17.3 µM (inactive); with OVCAR-5, 15.7 µM (inactive). The values for the GI50 in the assay with EKVX and in the assay with K562 were 26.2 µM (inactive) and 16.3 µM (inactive), respectively.
For the molecule `CCOP(=O)(/C=C/n1ccc(N)nc1=O)OCC`, the GI50 in the assay with DU-145 was > 100 µM (inactive); with PC-3, > 100 µM (inactive); in the assay on SNB-75 it was > 100 µM (inactive); in the assay on BT-549, > 100 µM (inactive); with NCI-H226, 97.9 µM (inactive); with Hs-578T it was > 100 µM (inactive). The GI50 in the assay with U-251, in the assay on SNB-19, with OVCAR-3, in the assay on SW-620, in the assay with UACC-257 and in the assay on MDA-MB-435 was > 100 µM (inactive) each time. In addition, the GI50 in the assay on MOLT-4, in the assay on SK-MEL-2, with RPMI-8226, in the assay with SF-539, in the assay on HOP-62 and in the assay with OVCAR-5 was > 100 µM (inactive) each time. In addition, the GI50 with EKVX and in the assay on K562 was > 100 µM (inactive) in each case.
With `CCN(CC)CCOCC1CCCN2CCCCC12` (stereo not given), the GI50 in the assay on DU-145, in the assay on PC-3, with SNB-75, in the assay with BT-549, with NCI-H226 and with Hs-578T was > 100 µM (inactive) in each case. Moreover, the GI50 in the assay with U-251, with SNB-19, with OVCAR-3, in the assay with SW-620, in the assay with UACC-257 and with MDA-MB-435 was > 100 µM (inactive) each time. Further, the GI50 in the assay with MOLT-4, in the assay on SK-MEL-2, in the assay on RPMI-8226, in the assay on SF-539, with HOP-62 and with OVCAR-5 was > 100 µM (inactive) throughout. Moreover, the GI50 in the assay on EKVX and in the assay on K562 was > 100 µM (inactive) in each case.
Consider `NCc1ccccc1.O=C(O)NCc1ccccc1`, for which the GI50 in the assay on DU-145 is 42.8 µM (inactive); in the assay on PC-3, 20.8 µM (inactive); in the assay on SNB-75, 27.4 µM (inactive); in the assay on BT-549, 29.5 µM (inactive); in the assay with NCI-H226, 30.1 µM (inactive); in the assay with Hs-578T it was 26.1 µM (inactive). Besides, the GI50 in the assay on U-251 is 26.9 µM (inactive); with SNB-19, 40.3 µM (inactive); with OVCAR-3 it was 31.4 µM (inactive); in the assay with SW-620, 34.8 µM (inactive); in the assay on UACC-257 it was 32 µM (inactive); in the assay on MDA-MB-435, 31.5 µM (inactive). The GI50 in the assay on MOLT-4 was 18.8 µM (inactive); in the assay with SK-MEL-2, 8.91 µM (inactive); in the assay with RPMI-8226 it was 12.6 µM (inactive); with SF-539, 41.1 µM (inactive); in the assay on HOP-62 it was 38 µM (inactive); in the assay with OVCAR-5, 30.1 µM (inactive). Further, the GI50 in the assay on EKVX was 30.6 µM (inactive); in the assay with K562, 24.3 µM (inactive).
Take `COC(=O)c1ccc2n1C1CC3CC(CC2C3)C1`: the GI50 in the assay on DU-145 was > 100 µM (inactive); in the assay on PC-3, 40 µM (inactive); with SNB-75 it was > 100 µM (inactive); with BT-549, > 100 µM (inactive); with NCI-H226, > 100 µM (inactive); with Hs-578T, 16.2 µM (inactive). For the same molecule, the GI50 in the assay with U-251, in the assay on SNB-19, with OVCAR-3, with SW-620, with UACC-257 and in the assay on MDA-MB-435 was > 100 µM (inactive) in each case. Besides, the GI50 in the assay with MOLT-4 is 57.5 µM (inactive); in the assay with SK-MEL-2 it was 70.6 µM (inactive); in the assay on RPMI-8226, 42.8 µM (inactive); in the assay on SF-539 it was > 100 µM (inactive); with HOP-62, > 100 µM (inactive); with OVCAR-5, > 100 µM (inactive). Also, the GI50 in the assay on EKVX was > 100 µM (inactive); in the assay with K562, 51.2 µM (inactive).
